Test results as given in patent publication US20250353828A1, “SUBSTITUTED BIARYL ENDOCHIN-LIKE QUINOLONES WITH ENHANCED ANTIPARASITIC ACTIVITY” (Oregon Health & Science University, priority 2022, published 2025).
Read-outs that look alike come from different tables or passages of the source.

What was measured:
[1] = test system: P. yoelii (Kenya Strain) blood stage infection in mice; test: 4-day Peters test against murine malaria; assay type: in vivo; conditions: for 4-day Peters Test Results ED50 / 4-day Peters Test Results NRD (non-recrudescence dose) / 4-day Peters Test Results ED90: P. yoelii in mice, oral gavage in PEG400 on Days 1-4, prodrugs dosed on molar equivalency to parent drug
Experimental: On Day 5 a drop of blood was taken from the tail and a blood smear was prepared, fixed with methanol, and stained with Giemsa. The operator then examined the stained smear microscopically to determine percent parasitemia. Dosages of 0.0025, 0.005, 0.01, 0.03, 0.1, 0.3, 1.0 and 10 mg/kg/day were used for the experiment. […] In this model animals were inoculated exactly as for the 4-day test on Day 0 however drug was administered only on Day 1 while the operator made smears on Day 5 and again weekly thereafter for animals that remained aparasitemic. Animals that remained aparasitemic out to […] were scored as cures.
(§1) In Vivo Efficacy against Murine Malaria. The P. yoelii 4-day test monitors suppression of patent infection in female CF1 mice. The test began with the inoculation (iv) of parasitized erythrocytes (3.5×10^4/P. yoelli) (from a donor animal) on the first day of the experiment (D0). […] Initially the 3-biaryl-ELQs were tested at doses of 0.0025, 0.005, 0.01, 0.03, 0.1, 0.3, 1.0 and 10 mg/kg/day, including a vehicle-only (PEG400) control. After completion of drug treatment, a blood sample was collected (by pricking the tail vein) for determination of parasite burden beginning on the day after the final dose (D5). Percent parasitemia is assessed by direct microscopic analysis of Giemsa-stained blood smears. […] Animals with observable parasitemia following the experiment were euthanized; animals cleared of parasites from the bloodstream were observed daily with assessment of parasitemia performed weekly until day 30, at which point the animal(s) were scored as cured of infection. […] Non-linear regression analysis is used for objective determination of ED50's and ED90's from the accumulated data as well as the Non-Recrudescence Dose (NRD). The 4-day test protocol was reviewed and approved by the local IACUC board at the Portland VA Medical Center. Experiments were performed with 4 mice per group to ensure statistical accuracy.

[2] = test system: P. falciparum Tm90-C2B (atovaquone-resistant clinical isolate); test: In vitro antiplasmodial activity, SYBR Green I assay, Tm90-C2B; assay type: cell-based; conditions: Plasmodium falciparum, read-out: P. falciparum IC50 values, nM Tm90-C2B
Experimental: (§2) Rationale for Synthesis of a 3-Biaryl Version of ELQ-300. […] All of this information is stored in a database with information relating to chemical structure, physical chemical properties, cross resistance patterns, mammalian cell cytotoxicity, enzyme inhibitor profiles, and synthesis details. […] We employed the SyBr Green assay and the plates were incubated for 72 hours before harvesting^18, 19. […] Stock solutions were freshly prepared in DMSO.
(§3) Plasmodium falciparum Culture. Laboratory strains of P. falciparum were cultured in human erythrocytes by standard methods. The parasites were grown in culture medium with fresh human erythrocytes maintained at 2% hematocrit at 37° C. in low-oxygen conditions (5% O2, 5% CO2, […] balance N2). […] Cultures were maintained at less than 10% parasitemia by transfer of infected cells to fresh erythrocytes and culture medium every 3 or 4 days.
(§4) In vitro drug susceptibility assays. SYBR green I assay. In vitro antiplasmodial activity was assessed using a published SYBR Green I fluorescence-based method. The drugs were added to 96-well plates using 2-fold serial dilutions in complete medium. […] Asynchronous P. falciparum parasites were diluted with uninfected erythrocytes and added to the wells to give a final culture volume of 100 μl at 2% hematocrit and 0.2% parasitemia. […] The parasites were then lysed by adding 100 μl of SYBR green I lysis buffer containing 0.2 μl/ml SYBR green I dye (10,000×) in 20 mM Tris (pH 7.5), 5 mM EDTA, 0.008% (wt/vol) saponin, and 0.08% (vol/vol) Triton X-100. The plates were incubated at room temperature for an hour in the dark. […] If the IC50 value fell outside of the initial tested range then the range was adjusted up or down and the assay was repeated.

[3] = test system: P. falciparum D6 strain (drug sensitive); test: In vitro antiplasmodial activity, SYBR Green I assay, D6 strain; assay type: cell-based, Plasmodium falciparum; conditions: for IC50: Plasmodium falciparum, read-out: P. falciparum IC50 values, nM D6
Experimental: as §2, §3, §4

[4] = test system: P. yoelii blood stage infection in mice; test: In vivo single-dose cure against murine malaria; conditions: for Single dose cure: lowest single dose that cures all 4 mice, P. yoelii, prodrugs dosed on molar equivalency to parent drug
Experimental: Animals that remained aparasitemic out to […] were scored as cures.
In Vivo Single-Dose Efficacy against Murine Malaria. The effectiveness of selected 3-biarylELQs and prodrugs was assessed vs. the blood stage infection for single dose cures. Mice are infected iv with 3.5×10^4 P. yoelii infected RBCs as described for the 4-day test above. Drug administration occurred on the day after inoculation (Day 1). Test agents were dissolved in PEG-400 and administered ig once. On the 5th day blood films were prepared and % parasitemia was assessed. Animals remaining parasite-free for 30 days after drug administration were considered cured. The initial dosing range was: 0.5, 1, 2.5, 5, 10 mg/kg, including a control. Experiments were performed with 4 mice per group to ensure statistical accuracy. The reported parameter for these studies is the lowest single dose that provides a cure to all 4 animals in the group.

[5] = test system: P. falciparum Dd2 strain (multidrug resistant); test: microbe, parasite or virus in culture; assay type: cell-based, Plasmodium falciparum; conditions: Plasmodium falciparum, DD2, 72 h, read-out: P. falciparum IC50 values, nM Dd2
Experimental: as §2, §3, §4

[6] = target: T1, human liver cytochrome bc1 complex (Homo sapiens, UniProt P00156); conditions: data taken from Nilsen et al., 2013 (a) or Frueh et al., 2017 (b); cited from earlier work
T1 construct: human host cytochrome bc1 complex isolated from human liver tissue; from tissue; host or cells: human liver tissue

[7] = test system: P. falciparum D1 clone (ELQ-300 resistant); test: microbe, parasite or virus in culture; assay type: cell-based; conditions: Plasmodium falciparum, 72 h, read-out: P. falciparum IC50 values, nM D1
[8] = target: T2, P. falciparum cytochrome bc1 complex (Plasmodium falciparum, UniProt Q02768); conditions: data taken from Nilsen et al., 2013 (a) or Frueh et al., 2017 (b); cited from earlier work
T2 construct: endogenous in cells
T2 sequence (Q02768 1-376): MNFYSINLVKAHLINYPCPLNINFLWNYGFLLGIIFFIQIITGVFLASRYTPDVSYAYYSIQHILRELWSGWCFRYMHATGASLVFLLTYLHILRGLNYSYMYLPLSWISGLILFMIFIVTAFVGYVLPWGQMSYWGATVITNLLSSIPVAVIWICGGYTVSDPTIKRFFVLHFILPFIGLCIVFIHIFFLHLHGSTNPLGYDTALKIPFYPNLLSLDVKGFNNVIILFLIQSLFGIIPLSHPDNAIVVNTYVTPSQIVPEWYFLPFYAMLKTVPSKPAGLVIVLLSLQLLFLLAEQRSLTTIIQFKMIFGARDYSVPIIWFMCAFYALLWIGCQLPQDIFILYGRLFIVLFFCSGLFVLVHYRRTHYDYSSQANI

[9] = target: T2, P. falciparum cytochrome bc1 complex; test: biochemical; conditions: cytochrome bc1 activity from P. falciparum mitochondria
From the text: Isolation of Plasmodium falciparum Mitochondria and Ubiquinol-Cytochrome c Oxidoreductase Assay.

[10] = target: T1, human liver cytochrome bc1 complex; test: Inhibition of human cytochrome bc1 complex; assay type: biochemical; conditions: complex isolated from human liver tissue
From the text: Human Cytochrome bc1 Assays.

[11] = Murine microsomal metabolic stability; conditions: for half-life at 1 μM: pH 7.4, T1/2 (minutes)
From the text: Ketanserin served as an internal standard for the metabolic rate of a known drug with known intermediate stability.
Imipramine or Osalmid were used as internal standards, and ketanserin was used as a control drug with intermediate stability.

HepG2 cells = test: HepG2 cytotoxicity, TiterGlo ATP luminescence, galactose medium; assay type: cell-based, human
Experimental: (§5) […]. Of course, enhanced potency is desirable only if unaccompanied by enhanced toxicity. […] […]. The incubation period for these experiments was 48 hours.

[12] = as above; assay type: cell-based, human; conditions: human
Experimental: as §5

[13] = Appearance, behaviour and weight observations in the in vivo efficacy-testing model; conditions: mice, at any dose level of the efficacy tests
Experimental: as §1

[14] = Tm90-C2B strain, 72 h incubation, averages of quadruplicate with (95% confidence intervals)
[15] = D6 strain, 72 h incubation, averages of quadruplicate with (95% confidence intervals)
[16] = mouse, pooled liver microsomes, murine liver microsomes 0.5 mg/ml, 37° C., NADPH, 45 minutes

Row | SMILES | 4-day Peters Test Results ED50 [1] [mg/kg/day] | 4-day Peters Test Results NRD (non-recrudescence dose) [1] [mg/kg/day] | IC50 [2, 14] [nM] | IC50 [3, 15] [nM] | Single dose cure ([4]; dose on Day 1) [mg/kg/day] | IC50 [5] [nM] | IC50 [7] [nM] | 4-day Peters Test Results ED90 [1] [mg/kg/day] | half-life at 1 μM [11, 16] [h] | further results
1 | O=C1C(O)=C([C@H]2CC[C@H](c3ccc(Cl)cc3)CC2)C(=O)c2ccccc21 [Atovaquone, reference compound] | 0.1 | 10 | > 1000 | 0.08 | 10 | 0.4 | 0.4 |  |  | IC50 [6]: 460 nM
2 | CCN(CC)CCCC(C)Nc1ccnc2cc(Cl)ccc12 (stereo not drawn) [CQ, chloroquine, reference compound] |  | >64 |  |  | >64 |  |  |  |  | 
3 | CCOC(=O)OCOc1c(-c2ccc(Oc3ccc(OC(F)(F)F)cc3)cc2)c(C)nc2cc(OC)c(Cl)cc12 [ELQ-331, reference compound] |  | 1.0 |  |  | 3 |  |  | 0.05 |  | IC50 [8]: 5300 nM; IC50 [6]: > 10000 nM
4 | COc1cc2[nH]c(C)c(-c3ccc(-c4ccc(OC(F)(F)F)cc4)cc3)c(=O)c2cc1Cl [ELQ-596, 6-chloro-7-methoxy-2-methyl-3-(4′-(trifluoromethoxy)-[1,1′-biphenyl]-4-yl)quinolin-4(1H)-one] | 0.01 | 0.3 |  |  |  | 0.4 |  | 0.021 | > 66.7 | IC50 [9]: 0.1 nM; IC50 [10]: > 10000 nM; IC50 ([2]; TM90, 72 h): 0.2 nM; improvement of IC50 values over ELQ-300 ([3]; D6 and Dd2 strains as well as C2B): 8- to 10 fold; IC50 ([3]; D6, 72 h): 0.3 nM; CLint scaled at 1 μM ([11]; mouse, pooled liver microsomes, pH 7.4): 1.15 mL/min/kg; T1/2 (minutes) ([11]; murine liver microsomes 0.5 mg/ml, 37° C., NADPH, 45 minutes): 4,260 minutes; EC50 (HepG2 cells; medium with galactose instead of glucose): > 10000 nM; EC50 at 48 h ([12]; HepG2, galactose medium, 48 hours, read-out: EC50 (cytotoxicity)): > 10000 nM
5 | CCOC(=O)OCOc1c(-c2ccc(-c3ccc(OC(F)(F)F)cc3)cc2)c(C)nc2cc(OC)c(Cl)cc12 [ELQ-598, ((6-chloro-7-methoxy-2-methyl-3-(4′-(trifluoromethoxy)-[1,1′-biphenyl]-4-yl)quinolin-4-yl)oxy)methyl ethyl carbonate] | 0.006 | 0.1 | 0.8 | 1.5 | ≤0.5 |  |  | 0.01 |  | P. falciparum cytochrome bc1, nM [9]: only feeble inhibitory activity; IC50 [10]: > 10000 nM; ED50, ED90 and NRD lower than for ELQ-300 and ELQ-331 ([1]; 4-day test): roughly 3 fold; lowest fully protective single dose cure ([4]; P. yoelii in mice, dose on Day 1, lowest dose tested to date, as parent drug equivalent): 0.5 mg/kg; more effective as a single dose cure compared directly to ELQ-331 ([4]; blood stage malaria infections in mice): at least 6 times; lowest fully protective single dose cure, mg/kg of prodrug ([4]; same result expressed as mass of prodrug): 0.6 mg/kg; appearance, behavioral or weight changes after dosing [13]: no appearance, behavioral or weight changes; EC50 at 48 h [12]: > 10000 nM
6 | COc1ccc2c(=O)c(-c3ccc(-c4ccc(OC(F)(F)F)cc4)cc3)c(C)[nH]c2c1 [ELQ-685, 7-Methoxy-2-methyl-3-(4′-(trifluoromethoxy)-[1,1′-biphenyl]-4-yl)quinolin-4(1H)-one] |  |  | 5.2 | 5.8 |  | 8.5 | 3.5 |  | > 66.7 | 
7 | CCOC(=O)OCOc1c(-c2ccc(-c3ccc(OC(F)(F)F)cc3)cc2)c(C)nc2cc(OC)ccc12 [ELQ-695, Ethyl (((7-methoxy-2-methyl-3-(4′-(trifluoromethoxy)-[1,1′-biphenyl]-4-yl)quinolin-4-yl)oxy)methyl) carbonate] | 0.2 | 3.7 | 10.1 | 20.9 |  | 22.3 | 8.4 | 0.3 | > 66.7 | 
8 | C=C(C)[C@H]1Cc2c(ccc3c2O[C@@H]2COc4cc(OC)c(OC)cc4[C@@H]2C3=O)O1 [rotenone, reference compound] |  |  |  |  |  |  |  |  |  | EC50 (cytotoxicity) (HepG2 cells; HepG2, galactose medium, 48 hours): quite cytotoxic
